Measured values published in patent US20190275027A1 (priority 2018, published 2019).
“And” between values parts separate entries of the source, which are not always exact repeats. Identical values can stand only once. Like-named read-outs stand apart in the source and are kept apart here.

Legend:
[1] = system: wild type Ebola virus, Mayinga strain; assay: microbe, parasite or virus in culture; assay type: cell-based; conditions: for IC50: Zaire ebolavirus, Huh-7, 24 h, read-out: EBOV IC50
[2] = system: MARV; assay: organism not typed; assay type: cell-based, Marburg virus; conditions: read-out: MARV IC50
[3] = physchem; conditions: pH 7.4, aqueous buffer, kinetic from dmso stock
[4] = system: EBOV virus; set-up: species or system BALB/c mice; conditions: mouse, in vivo
[5] = system: EBOV; set-up: species or system murine; conditions: mouse, in vivo

| SMILES | IC50 [1] | IC50 [2] | also measured |
| --- | --- | --- | --- |
| COc1cc2c(cc1OC)[C@@H](Cc1cccc(Oc3cccc(C[C@@H]4c5cc6c(cc5CCN4C)OCO6)c3)c1)N(C)CC2 [B3-36^R,R] | 413 ± 51 nM | 495 ± 66 nM | – |
| COc1ccc2c(c1)CCN(C)[C@@H]2Cc1ccc(Oc2ccc(C[C@@H]3c4ccc(OC)cc4CCN3C)cc2)cc1 [B4-14^RR] | – | – | EBOV activity (in words) [1]: good activity |
| COc1cc2c(cc1OC)[C@@H](Cc1ccc(Oc3ccc(C[C@@H]4c5cc(OC)c(OC)cc5CCN4C)cc3OC)c(OC)c1)N(C)CC2 [Compound 1] | 730 ± 60 nM | 506 ± 87 nM | solubility [3]: > 100 µM; % Survival [4]: 100%; Efficacy against Ebola virus challenge (in words) [4]: statistically significant improvement when compared to TETN and saline; Survival [4]: 7/7; Efficacy (in words) [5]: good efficacy; Survival [5]: 4/7 and 0/7 |
| COc1cc2c(cc1OC)[C@@H](Cc1ccc(Oc3cc(C[C@@H]4c5cc(OC)c(OC)cc5CCN4C)ccc3OC)c(OC)c1)N(C)CC2 [Compound 2] | 1050 ± 90 nM | 1240 ± 269 nM | solubility [3]: > 100 µM; % Survival [4]: 100%; Efficacy against Ebola virus challenge (in words) [4]: statistically significant improvement when compared to TETN and saline; Survival [4]: 7/7; % Survival [5]: 57% and 43%; Efficacy (in words) [5]: good efficacy; Survival [5]: 4/7 and 3/7; Efficacy (in words) ([5]; 5 mg/kg): moderate efficacy |
| COc1cc2c(cc1OC)[C@@H](Cc1ccc(OC)c(Oc3cc(C[C@@H]4c5cc(OC)c(OC)cc5CCN4C)ccc3OC)c1)N(C)CC2 [Compound 3] | 1220 ± 119 nM | 1100 ± 222 nM | solubility [3]: > 100 µM; % Survival [4]: 71%; Efficacy against Ebola virus challenge (in words) [4]: good efficacy; Survival [4]: 5/7 |
| COc1cc2c(cc1OC)[C@@H](Cc1ccc(Oc3ccc(C[C@@H]4c5cc(OC)c(OC)cc5CCN4C)cc3OC)nc1)N(C)CC2 [Compound 4] | 446 ± 57 nM | 566 ± 108 nM | solubility [3]: > 100 µM; % Survival [4]: 71%; Efficacy against Ebola virus challenge (in words) [4]: good efficacy; Survival [4]: 5/7 |
| COc1ccc2c(c1)CCN(C)[C@@H]2Cc1ccc(Oc2ccc(C[C@@H]3c4cc(OC)c(OC)cc4CCN3C)cn2)c(OC)c1 [Compound 5] | 505 ± 32 nM | 414 ± 70 nM | solubility [3]: > 100 µM |
| COc1ccc2c(c1)CCN(C(C)C)[C@@H]2Cc1ccc(Oc2ccc(C[C@@H]3c4ccc(OC)cc4CCN3C(C)C)cc2)cc1 [Compound 41] | 249 ± 19 nM | 188 ± 40 nM | – |
| COc1ccc2c(c1)CCN(Cc1ccccc1)[C@@H]2Cc1ccc(Oc2ccc(C[C@@H]3c4ccc(OC)cc4CCN3Cc3ccccc3)cc2)cc1 [Compound 42] | > 1000 nM | > 1000 nM | – |
| COc1cc(C[C@@H]2c3cc4c(cc3CCN2C)OCO4)ccc1Oc1ccc(C[C@@H]2c3cc4c(cc3CCN2C)OCO4)cc1OC [Compound 45] | 372 ± 34 nM | 339 ± 56 nM | – |
| COc1cc2c(cc1OC)[C@@H](Cc1ccc(Oc3cccc(C[C@@H]4c5cc(OC)c(OC)cc5CCN4C)c3)nc1)N(C)CC2 [Compound 48] | 875 ± 110 nM | 1490 ± 320 nM | – |
| COc1cc2c(cc1OC)[C@@H](Cc1cccc(Oc3cc(C[C@@H]4c5cc(OC)c(OC)cc5CCN4C)ccc3OC)c1)N(C)CC2 [Compound 51] | 1090 ± 72 nM | 1180 ± 179 nM | – |
| COc1ccc(C[C@@H]2c3cc4c(cc3CCN2C)OCO4)cc1Oc1cc(C[C@@H]2c3cc4c(cc3CCN2C)OCO4)ccc1OC [Compound 52] | 615 ± 40 nM | 585 ± 154 nM | – |
| COc1ccc2c(c1)CCN(C)[C@@H]2Cc1cccc(Oc2cc(C[C@@H]3c4ccc(OC)cc4CCN3C)ccc2OC)c1 [Compound B3-12] | 1110 ± 179 nM | 839 ± 158 nM | – |
| CN1CCc2cc3c(cc2[C@H]1Cc1cccc(Oc2cccc(C[C@@H]4c5cc6c(cc5CCN4C)OCO6)c2)c1)OCO3 [Compound B3-35] | 789 ± 97 nM | 537 ± 60 nM | – |
| COc1ccc2c(c1)CCN(C)[C@@H]2Cc1ccc(OC)c(Oc2cc(C[C@@H]3c4ccc(OC)cc4CCN3C)ccc2OC)c1 [Compound B3-42] | 617 ± 45 nM | 418 ± 47 nM | – |
| COc1ccc2c(c1)CCN(C)[C@@H]2Cc1ccc(Oc2ccc(C[C@@H]3c4ccc(OC)cc4CCN3C)cc2OC)cc1 [Compound B4-17] | 134 ± 16 nM | 133 ± 26 nM | – |
| COc1ccc2c(c1)CCN(C)[C@@H]2Cc1cccc(Oc2ccc(C[C@@H]3c4cc(OC)c(OC)cc4CCN3C)cc2)c1 [Compound B4-21] | 424 ± 82 nM | 467 ± 93 nM | – |
| COc1ccc2c(c1)CCN(C)[C@@H]2Cc1ccc(Oc2ccc(C[C@@H]3c4cc(OC)c(OC)cc4CCN3C)cc2)cc1 [Compound B4-24] | 125 ± 26 nM | 130 ± 49 nM | – |
| COc1cc2c(cc1OC)[C@@H](Cc1ccc(Oc3cccc(C[C@@H]4c5cc(OC)c(OC)cc5CCN4C)c3)cc1)N(C)CC2 [Compound B4-26] | 530 ± 81 nM | 770 ± 89 nM | – |
| COc1ccc2c(c1)CCN(C)[C@@H]2Cc1cccc(Oc2ccc(C[C@@H]3c4cc5c(cc4CCN3C)OCO5)cc2)c1 [Compound B4-31] | 775 ± 156 nM | 1180 ± 105 nM | – |
| COc1ccc2c(c1)CCN(C)[C@@H]2Cc1ccc(Oc2ccc(C[C@@H]3c4cc5c(cc4CCN3C)OCO5)cc2)cc1 [Compound B4-34] | 65 ± 16 nM | 148 ± 48 nM | – |
| COc1cc2c(cc1OC)[C@@H](Cc1cccc(Oc3ccc(C[C@@H]4c5cc6c(cc5CCN4C)OCO6)cc3)c1)N(C)CC2 [Compound B4-36] | 415 ± 43 nM | 487 ± 88 nM | – |
| COc1ccc2cc1Oc1ccc(cc1)C[C@H]1c3cc(c(OC)cc3CCN1C)Oc1c(OC)c(OC)cc3c1[C@H](C2)N(C)CC3 [TETN, tetrandrine, reference compound] | 292 ± 31 nM | 370 ± 95 nM | solubility [3]: > 100 µM; % Survival [4]: 57%; Survival [4]: 4/7 |
